Patent publication US20060292243A1, “Arsenic compounds for the treatment of the arsenic-sensitive blast-cell related diseases” (priority 2005, published 2006)

Assays:
ssDNA = assay: Serum IgG anti-ssDNA ELISA in SLE model mice; format: in vivo, NZB/NZW mice
Experimental: (§1) In vivo studies on the activity of arsenic compound were carried out by using an experimental animal model of human Systemic Lupus Erythematosus. NZB/NZW denotes the mouse strain that spontaneously develops an autoimmune syndrome having notable similarities to human Systemic Lupus Erythematosus. Autoimmune disease in NZB/NZW mice is characterized by antinuclear antibodies (IgG) production about 4 months of age, and glomerulonephritis with proteinuria is developed when at 9 months of age, and that is the major cause of death (uremia).
(§2) At 24 weeks of age, mice (3 groups) were treated 3 times per week with PBS (Group I as positive control), 2.5 mg/kg of As2O3 (Group II), or 5 mg/kg of As2O3 (Group III) administered intraperitoneally. The treatment was stopped at 28 weeks of age. Mice were observed daily for clinical signs of disease and for mortality and were bled every 4 weeks for determination of anti-DNA antibody production.
(§3) Standard ELISA assay to measure the serum levels of anti-DNA antibodies was performed as follows. The plates were coated 10 μg/mL mBSA 4° C. overnight before coating dsDNA and ssDNA diluted with PBS to concentration of 7.5 μg/mL. ssDNA was prepared by boiling for 20 min then placed on ice immediately for 20 min. After overnight incubation at 4° C., the plates were washed and blocked with gelatin-PBS solution. The serum was diluted and then added to the appropriate wells, which were then incubated at 37° C. for 45 min. Horseradish peroxidase-comjugated anti-mouse γ-chain-specific antibodies were added. After incubation at 37° C. for 50 min, then room temperature for 10 min, 2,2′-azino-bisC3-ethylbenzthiazoline-6-sulphonic acid (ABTS) solution was used as substrate and the absorbance was measured at 405 nm. The level of anti-DNA IgG is presented as ELISA units (EU/ml) compared with mAb 10F10. The OD value generated by 74 ng/ml of 10F10 Ab was defined as 1 EU/ml for anti-DNA IgG. The level of anti-nucleosome IgG was calculated as EU by comparison with 10F10 Ab. The absorbance value generated by 231 ng/ml of 10F10 Ab was defined as 1 EU/ml of anti-nucleosome IgG.

dsDNA = assay: Serum IgG anti-dsDNA ELISA in SLE model mice; format: in vivo, NZB/NZW mice
Experimental: as §1, §2, §3

NZB/NZW mice = assay: Severe glomerulonephritis (proteinuria by urine dipstick) in SLE model mice; format: in vivo; settings: for Mice with severe glomerulonephritis (%): proteinuria more than 1 g/L (2+)
Experimental: as §1, §2
Urine protein levels were determined by colorimetric analysis using dipsticks (Multistix®, Bayer). Severe glomerulonephritis was defined as proteinuria more than 1 g/L (2+) by urine dipstick.

[1] = 2.5 mg/kg i.p. 3 times per week, before treatment
[2] = 2.5 mg/kg, 4 weeks after treatment
[3] = 2.5 mg/kg, 8 weeks after treatment
[4] = 2.5 mg/kg, 12 weeks after treatment
[5] = 5 mg/kg i.p. 3 times per week, before treatment
[6] = 5 mg/kg, 4 weeks after treatment
[7] = 5 mg/kg, 8 weeks after treatment
[8] = 5 mg/kg, 12 weeks after treatment

arsenic trioxide
IgG Anti-ssDNA titer (ssDNA; [1]): 0.155 ELISA Unit
IgG Anti-ssDNA titer (ssDNA; [2]): 0.347 ELISA Unit
IgG Anti-ssDNA titer (ssDNA; [3]): 0.400 ELISA Unit
IgG Anti-ssDNA titer (ssDNA; [4]): 0.105 ELISA Unit
IgG Anti-ssDNA titer (ssDNA; [5]): 0.176 ELISA Unit
IgG Anti-ssDNA titer (ssDNA; [6]): 0.303 ELISA Unit
IgG Anti-ssDNA titer (ssDNA; [7]): 0.296 ELISA Unit
IgG Anti-ssDNA titer (ssDNA; [8]): 0.201 ELISA Unit
IgG Anti-dsDNA titer (dsDNA; [1]): 0.262 ELISA Unit
IgG Anti-dsDNA titer (dsDNA; [2]): 0.572 ELISA Unit
IgG Anti-dsDNA titer (dsDNA; [3]): 0.464 ELISA Unit
IgG Anti-dsDNA titer (dsDNA; [4]): 0.442 ELISA Unit
IgG Anti-dsDNA titer (dsDNA; [5]): 0.362 ELISA Unit
IgG Anti-dsDNA titer (dsDNA; [6]): 0.285 ELISA Unit
IgG Anti-dsDNA titer (dsDNA; [7]): 0.357 ELISA Unit
IgG Anti-dsDNA titer (dsDNA; [8]): 0.702 ELISA Unit
anti-DNA antibody levels in sera compared to PBS (Tables 4.1 and 4.2, ssDNA and dsDNA) (dsDNA; NZB/NZW mice, 2.5 or 5 mg/kg): significantly lower anti-DNA antibody levels
onset of severe proteinuria in comparison with untreated animals (NZB/NZW mice; 2.5 mg/kg ATO and 5 mg/kg ATO): marked delay in the onset of severe proteinuria
Mice with severe glomerulonephritis (%) (NZB/NZW mice; 2.5 mg/kg, 37 weeks): 16.67%
Mice with severe glomerulonephritis (%) (NZB/NZW mice; 2.5 mg/kg, 40 weeks): 40%
Mice with severe glomerulonephritis (%) (NZB/NZW mice; 5 mg/kg, 37 weeks): 25%
Mice with severe glomerulonephritis (%) (NZB/NZW mice; 5 mg/kg, 40 weeks): 25%
